Measured values taken from the NIST ThermoML archive (doi:10.1021/je060271a).
± gives the expanded uncertainty stated by the source.

Settings: 343.15 K, Liquid, Vibrating tube method

CCCCCCCC(=O)OCC(COC(=O)CCCCCCC)(COC(=O)CCCCCCC)COC(=O)CCCCCCC [pentaerythritol tetraoctanoate]
mass density (18521 kPa): 939.1 ± 1.2 kg/m3
mass density (18542 kPa): 939.2 ± 1.2 kg/m3
mass density (18560 kPa): 939.1 ± 1.2 kg/m3
mass density (18577 kPa): 939.1 ± 1.2 kg/m3
mass density (18598 kPa): 939.1 ± 1.2 kg/m3
mass density (18616 kPa): 939.1 ± 1.2 kg/m3
mass density (18635 kPa): 939.2 ± 1.2 kg/m3
mass density (18657 kPa): 939.2 ± 1.2 kg/m3
mass density (18673 kPa): 939.2 ± 1.2 kg/m3
mass density (18695 kPa): 939.2 ± 1.2 kg/m3
mass density (18712 kPa): 939.1 ± 1.2 kg/m3
mass density (18730 kPa): 939.3 ± 1.2 kg/m3
mass density (18752 kPa): 939.4 ± 1.2 kg/m3
mass density (18771 kPa): 939.4 ± 1.2 kg/m3
mass density (18789 kPa): 939.2 ± 1.2 kg/m3
mass density (18812 kPa): 939.2 ± 1.2 kg/m3
mass density (18830 kPa): 939.2 ± 1.2 kg/m3
mass density (18848 kPa): 939.3 ± 1.2 kg/m3
mass density (18870 kPa): 939.4 ± 1.2 kg/m3
mass density (18888 kPa): 939.3 ± 1.2 kg/m3
mass density (18907 kPa): 939.4 ± 1.2 kg/m3
mass density (18926 kPa): 939.4 ± 1.2 kg/m3
mass density (18948 kPa): 939.4 ± 1.2 kg/m3
mass density (18967 kPa): 939.4 ± 1.2 kg/m3
mass density (18986 kPa): 939.4 ± 1.2 kg/m3
mass density (19008 kPa): 939.4 ± 1.2 kg/m3
mass density (19027 kPa): 939.4 ± 1.2 kg/m3
mass density (19049 kPa): 939.6 ± 1.2 kg/m3
mass density (19068 kPa): 939.5 ± 1.2 kg/m3
mass density (19087 kPa): 939.4 ± 1.2 kg/m3
mass density (19106 kPa): 939.5 ± 1.2 kg/m3
mass density (19129 kPa): 939.5 ± 1.2 kg/m3
mass density (19148 kPa): 939.4 ± 1.2 kg/m3
mass density (19167 kPa): 939.5 ± 1.2 kg/m3
mass density (19190 kPa): 939.6 ± 1.2 kg/m3
mass density (19210 kPa): 939.6 ± 1.2 kg/m3
mass density (19225 kPa): 939.6 ± 1.2 kg/m3
mass density (19248 kPa): 939.6 ± 1.2 kg/m3
mass density (19271 kPa): 939.5 ± 1.2 kg/m3
mass density (19291 kPa): 939.6 ± 1.2 kg/m3
mass density (19310 kPa): 939.7 ± 1.2 kg/m3
mass density (19334 kPa): 939.6 ± 1.2 kg/m3
mass density (19353 kPa): 939.6 ± 1.2 kg/m3
mass density (19373 kPa): 939.6 ± 1.2 kg/m3
mass density (19396 kPa): 939.7 ± 1.2 kg/m3
mass density (19416 kPa): 939.7 ± 1.2 kg/m3
mass density (19436 kPa): 939.7 ± 1.2 kg/m3
mass density (19456 kPa): 939.8 ± 1.2 kg/m3
mass density (19480 kPa): 939.6 ± 1.2 kg/m3
mass density (19499 kPa): 939.7 ± 1.2 kg/m3
mass density (19519 kPa): 939.6 ± 1.2 kg/m3
mass density (19543 kPa): 939.7 ± 1.2 kg/m3
mass density (19563 kPa): 939.8 ± 1.2 kg/m3
mass density (19587 kPa): 939.8 ± 1.2 kg/m3
mass density (19608 kPa): 939.8 ± 1.2 kg/m3
mass density (19627 kPa): 939.7 ± 1.2 kg/m3
mass density (19647 kPa): 939.8 ± 1.2 kg/m3
mass density (19671 kPa): 939.9 ± 1.2 kg/m3
mass density (19691 kPa): 939.7 ± 1.2 kg/m3
mass density (19712 kPa): 939.8 ± 1.2 kg/m3
mass density (19736 kPa): 939.8 ± 1.2 kg/m3
mass density (19756 kPa): 939.8 ± 1.2 kg/m3
mass density (19780 kPa): 939.9 ± 1.2 kg/m3
mass density (19801 kPa): 940.1 ± 1.2 kg/m3
mass density (19821 kPa): 940.1 ± 1.2 kg/m3
mass density (19841 kPa): 939.9 ± 1.2 kg/m3
mass density (19866 kPa): 940 ± 1.2 kg/m3
mass density (19887 kPa): 940 ± 1.2 kg/m3
mass density (19907 kPa): 940 ± 1.2 kg/m3
mass density (19932 kPa): 940 ± 1.2 kg/m3
mass density (19952 kPa): 940.1 ± 1.2 kg/m3
mass density (19977 kPa): 940 ± 1.2 kg/m3
mass density (19999 kPa): 940 ± 1.2 kg/m3
mass density (20019 kPa): 940 ± 1.2 kg/m3
mass density (20040 kPa): 940.1 ± 1.2 kg/m3
mass density (20065 kPa): 940 ± 1.2 kg/m3
mass density (20108 kPa): 940.1 ± 1.2 kg/m3
mass density (20155 kPa): 940.1 ± 1.2 kg/m3
mass density (20180 kPa): 940.2 ± 1.2 kg/m3
mass density (20201 kPa): 940.2 ± 1.2 kg/m3
mass density (20223 kPa): 940.1 ± 1.2 kg/m3
mass density (20245 kPa): 940.2 ± 1.2 kg/m3
mass density (20271 kPa): 940.1 ± 1.2 kg/m3
mass density (20295 kPa): 940.1 ± 1.2 kg/m3
mass density (20316 kPa): 940.3 ± 1.2 kg/m3
mass density (20338 kPa): 940.2 ± 1.2 kg/m3
mass density (20364 kPa): 940.2 ± 1.2 kg/m3
mass density (20386 kPa): 940.3 ± 1.2 kg/m3
mass density (20408 kPa): 940.3 ± 1.2 kg/m3
mass density (20434 kPa): 940.3 ± 1.2 kg/m3
mass density (20527 kPa): 940.5 ± 1.2 kg/m3
mass density (20550 kPa): 940.3 ± 1.2 kg/m3
mass density (20577 kPa): 940.3 ± 1.2 kg/m3
mass density (20596 kPa): 940.4 ± 1.2 kg/m3
mass density (20622 kPa): 940.5 ± 1.2 kg/m3
mass density (20645 kPa): 940.4 ± 1.2 kg/m3
mass density (20667 kPa): 940.5 ± 1.2 kg/m3
mass density (20690 kPa): 940.5 ± 1.2 kg/m3
mass density (20708 kPa): 940.5 ± 1.2 kg/m3
mass density (20731 kPa): 940.6 ± 1.2 kg/m3
mass density (20753 kPa): 940.5 ± 1.2 kg/m3
mass density (20790 kPa): 940.5 ± 1.2 kg/m3
mass density (20813 kPa): 940.5 ± 1.2 kg/m3
mass density (20836 kPa): 940.5 ± 1.2 kg/m3
mass density (20864 kPa): 940.6 ± 1.2 kg/m3
mass density (20887 kPa): 940.6 ± 1.2 kg/m3
mass density (20910 kPa): 940.5 ± 1.2 kg/m3
mass density (20938 kPa): 940.7 ± 1.2 kg/m3
mass density (20961 kPa): 940.6 ± 1.2 kg/m3
mass density (20984 kPa): 940.8 ± 1.2 kg/m3
mass density (21008 kPa): 940.5 ± 1.2 kg/m3
mass density (21036 kPa): 940.7 ± 1.2 kg/m3
mass density (21059 kPa): 940.8 ± 1.2 kg/m3
mass density (21087 kPa): 940.8 ± 1.2 kg/m3
mass density (21110 kPa): 940.8 ± 1.2 kg/m3
mass density (21134 kPa): 940.7 ± 1.2 kg/m3
mass density (21162 kPa): 940.8 ± 1.2 kg/m3
mass density (21185 kPa): 940.8 ± 1.2 kg/m3
mass density (21215 kPa): 940.8 ± 1.2 kg/m3
mass density (21239 kPa): 940.8 ± 1.2 kg/m3
mass density (21262 kPa): 940.9 ± 1.2 kg/m3
mass density (21286 kPa): 940.9 ± 1.2 kg/m3
mass density (21315 kPa): 940.9 ± 1.2 kg/m3
mass density (21339 kPa): 940.9 ± 1.2 kg/m3
mass density (21363 kPa): 940.9 ± 1.2 kg/m3
mass density (21392 kPa): 941 ± 1.2 kg/m3
mass density (21416 kPa): 941 ± 1.2 kg/m3
mass density (21440 kPa): 941 ± 1.2 kg/m3
mass density (21469 kPa): 940.9 ± 1.2 kg/m3
mass density (21494 kPa): 941.1 ± 1.2 kg/m3
mass density (21518 kPa): 941.1 ± 1.2 kg/m3
mass density (21548 kPa): 941 ± 1.2 kg/m3
mass density (21573 kPa): 941.1 ± 1.2 kg/m3
mass density (21597 kPa): 941.1 ± 1.2 kg/m3
mass density (21622 kPa): 941.1 ± 1.2 kg/m3
mass density (21652 kPa): 941.1 ± 1.2 kg/m3
mass density (21677 kPa): 941.1 ± 1.2 kg/m3
mass density (21702 kPa): 941.2 ± 1.2 kg/m3
mass density (21732 kPa): 941.3 ± 1.2 kg/m3
mass density (21757 kPa): 941.3 ± 1.2 kg/m3
mass density (21782 kPa): 941.2 ± 1.2 kg/m3
mass density (21812 kPa): 941.2 ± 1.2 kg/m3
mass density (21837 kPa): 941.1 ± 1.2 kg/m3
mass density (21863 kPa): 941.2 ± 1.2 kg/m3
mass density (21890 kPa): 941.1 ± 1.2 kg/m3
mass density (21920 kPa): 941.2 ± 1.2 kg/m3
mass density (21946 kPa): 941.3 ± 1.2 kg/m3
mass density (21977 kPa): 941.3 ± 1.2 kg/m3
